Assay results as given in patent US3940426A, “Process for producing biphenyltetracarboxylic dianhydrides” (UBE Industries, Ltd., priority 1972, dated 1976).

Assays:
[1] = Solubility of biphenyltetracarboxylic acid isomers in water or an aqueous solvent; assay type: physicochemical; details: order among the biphenyltetracarboxylic acid isomers; FIG. 2 in water at varying temperatures
Experimental: The solubility was measured by maintaining each of a mixture of 9.35 g of 2,3,3',4'-biphenyltetracarboxylic acid and 10 ml. of water and a mixture of 7.53 g of 3,4,3',4'-biphenyltetracarboxylic acid and 20 ml. of water at a predetermined temperature to dissolve each of the isomers in water, separating the insoluble matter by filtration, drying the filtrate, and weighing it, to thereby obtained the amount of each isomer dissolved at the specified temperature.

[2] = Solubility of biphenyltetracarboxylic dianhydride isomers in aliphatic acid anhydride or ketone; assay type: physicochemical; details: compared with the 3,4,3',4'-isomer; FIG. 1 in acetic anhydride at varying temperatures
Experimental: Referring to FIG. 1, the ordinate represents the solubility (g/acetic anhydride: 10 ml.) and the abscissa the temperature in °C. The measurement of the solubility was performed by maintaining separate mixtures of 2.5 g of the 2,3,3',4'-isomer and 5 ml. of acetic anhydride and a mixture of 1 g of the 3,4,3',4'-isomer and 20 ml. of acetic anhydride at a predetermined temperature to dissolve each of the isomers in the acetic anhydride, separating the insoluble matter by filtration, drying the filtrate and weighing it, to thereby obtain the amount of the isomer dissolved in […] at the specified temperature.

SMILES | solubility in water or in an aqueous solvent [1] | solubility in an aliphatic acid anhydride or ketone [2]
O=C(O)c1cccc(-c2cccc(C(=O)O)c2C(=O)O)c1C(=O)O [2,3,2',3'-isomer, 2,3,2',3'-biphenyltetracarboxylic acid] | largest solubility in water or in an aqueous solvent | 
O=C(O)c1ccc(-c2cccc(C(=O)O)c2C(=O)O)cc1C(=O)O [2,3,3',4'-biphenyltetracarboxylic acid] | followed by the 2,3,3',4'-isomer | 
O=C1OC(=O)c2cc(-c3cccc4c3C(=O)OC4=O)ccc21 [2,3,3',4'-biphenyltetracarboxylic dianhydride] |  | more soluble in an aliphatic acid anhydride or ketone than the 3,4,3',4'-isomer
O=C(O)c1ccc(-c2ccc(C(=O)O)c(C(=O)O)c2)cc1C(=O)O [3,4,3',4'-biphenyltetracarboxylic acid] | the 3,4,3',4'-isomer in order of decreasing solubility | 
